One data set addresses T1, human RORγt (Homo sapiens, UniProt P51449).
T1 sequence (P51449 1-497 isoform P51449-2): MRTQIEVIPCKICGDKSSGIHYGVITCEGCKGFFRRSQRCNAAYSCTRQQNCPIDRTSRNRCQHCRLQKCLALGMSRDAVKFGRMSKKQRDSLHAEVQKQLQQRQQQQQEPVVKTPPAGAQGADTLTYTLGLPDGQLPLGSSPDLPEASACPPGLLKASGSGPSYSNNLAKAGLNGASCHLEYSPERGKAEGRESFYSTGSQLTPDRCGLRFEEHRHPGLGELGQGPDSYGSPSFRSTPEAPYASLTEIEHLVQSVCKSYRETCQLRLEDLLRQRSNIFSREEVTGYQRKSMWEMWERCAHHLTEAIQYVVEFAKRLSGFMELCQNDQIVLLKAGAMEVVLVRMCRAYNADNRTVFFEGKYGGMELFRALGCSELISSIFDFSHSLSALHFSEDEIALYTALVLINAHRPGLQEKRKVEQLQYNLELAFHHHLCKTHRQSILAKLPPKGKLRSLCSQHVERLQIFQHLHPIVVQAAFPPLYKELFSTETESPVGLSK
The data set can be described thus: RORE Luciferase/RORγt transactivation assay (IL-17 promoter luciferase reporter in COS-7 cells). It counts as cell-based. Conditions: RORγt activity inhibition, luciferase activity in transfected COS-7 cells, 20 h. Also on record: V5-His (named only through the vector pcDNA3.1D/V5-His-TOPO); expressed in transfected cells; host or cells: COS-7 (monkey kidney). Here is the method:
It is well known that RORγ binds to a conserved non-coding sequence (CNS) enhancer element in the IL-17 promoter.
Culture medium was changed every 2 days.
The 4.3 Kb human IL-17 promoter containing the RORγ-specific CNS enhancer element was PCR amplified from human genomic DNA and cloned into a pGL3-TKLuc2Cp reporter plasmid.
The luciferase reporter plasmid and the RORγt overexpression plasmid were transfected into COS-7 cell line using 4 μL JetPEI™/μg of DNA. Briefly, 150 ng of DNA (ration 1/2 between RORE-Tk Luc2Cp and cDNA RORγt or the empty vector for the negative control) was served to transfect adherent COS-7 cells in a […] culture flask, in complete medium (see cos-7 cell line culture).
Cells were then detached (using trypsin) and washed by centrifugation at 300 g for 10 minutes. Cell pellet was resuspended in serum free/phenol red free DMEM and seeded in 384 well plates at a density of 10000 cells/well and then incubated for 4 h at 37° C.
Compounds were dissolved in 100% DMSO to obtain 10 mM stock solutions. For each compound, test concentrations were diluted in serum free/phenol red free DMEM using the Genesis Freedom 200™ (TECAN) and added to the cells to obtain a 0.3% DMSO final concentration (in a final volume of 40 μL per well).
The luciferase activity was then measured with 40 μL/well steady-Glo Luciferase assay system (Promega, Madison, Wis.) and after incubation at room temperature for 30 minutes. The luminescence was estimated using the Ultra384 reader (TECAN). Data were collected and analyzed using GraphPad Prism software (GraphPad Software V5.02, San Diego Calif. USA). IC50 in μM and E max in % were reported for each compound.
(In general: A reporter such as luciferase makes a cellular process visible.)

Each structure is given as a SMILES string. Structures can show the parent of a compound that is named as a salt.

Usually melting point stands for the temperature, or range, at which the solid turns liquid. A word on the IC50: it is the midpoint of a concentration-inhibition curve.

`O=C(Cc1ccc(N2CCS(=O)(=O)CC2)cc1)NC(c1ccccc1)c1ccccc1N1CCCCC1` (stereo not shown) (as salt: HCl) [Cpd. 1, 2-[4-(1,1-dioxo-1-thiomorpholin-4-yl)phenyl]-N-{phenyl[2-(piperidin-1-yl)phenyl]methyl}acetamide] displayed a melting point of 202 °C.

The molecule `Cc1ccc(N2CCS(=O)(=O)CC2)cc1CC(=O)NC(c1ccccc1)c1ccccc1N1CCCCC1` (stereo not shown) (as salt: HCl) [Cpd. 2, 2-[5-(1,1-dioxo-1-thiomorpholin-4-yl)-2-methylphenyl]-N-{phenyl[2-(piperidin-1-yl)phenyl]methyl}acetamide] displayed a melting point of 188 °C.

`O=C(Cc1cc(N2CCS(=O)(=O)CC2)ccc1F)NC(c1ccccc1)c1ccccc1N1CCCCC1` (stereo not shown) (as salt: HCl) [Cpd. 3, 2-[5-(1,1-dioxo-1-thiomorpholin-4-yl)-2-fluorophenyl]-N-{phenyl[2-(piperidin-1-yl)phenyl]methyl}acetamide] registered a melting point of 184 °C.

In the case of `Cc1ccc(C(NC(=O)Cc2cc(N3CCS(=O)(=O)CC3)ccc2F)c2ccccc2)c(N2CCOCC2)c1` (stereo not shown) (as salt: HCl) [Cpd. 4, 2-[5-(1,1-dioxo-1-thiomorpholin-4-yl)-2-fluorophenyl]-N-{[4-methyl-2-(morpholin-4-yl)phenyl](phenyl)methyl}acetamide], the melting point amounted to 207 °C.

`Cc1ccc(C(NC(=O)Cc2cc(N3CCS(=O)(=O)CC3)ccc2C)c2ccc(C)o2)c(N2CCCCC2)c1` (stereo not shown) (as salt: HCl) [Cpd. 5, 2-[5-(1,1-dioxo-1-thiomorpholin-4-yl)-2-methylphenyl]-N-{[4-methyl-2-(piperidin-1-yl)phenyl](5-methylfuran-2-yl)methyl}acetamide] displayed a melting point of 101 °C.

`Cc1ccc(C(NC(=O)Cc2ccc(N3CCS(=O)(=O)CC3)cc2)c2ccc(C)o2)c(N2CCCCC2)c1` (stereo not shown) (as salt: HCl) [Cpd. 6, 2-[4-(1,1-dioxo-1-thiomorpholin-4-yl)phenyl]-N-{[4-methyl-2-(piperidin-1-yl)phenyl](5-methylfuran-2-yl)methyl}acetamide] returned a melting point of 101 °C.

For `Cc1ccc(C(NC(=O)Cc2cc(N3CCS(=O)(=O)CC3)ccc2C)c2ccccc2)c(N2CCOCC2)c1` (stereo not shown) (as salt: HCl) [Cpd. 7, 2-[5-(1,1-dioxo-1-thiomorpholin-4-yl)-2-methylphenyl]-N-{[4-methyl-2-(morpholin-4-yl)phenyl](phenyl)methyl}acetamide], the melting point stood at 219 °C.

In turn, `Cc1ccc(C(NC(=O)Cc2cc(N3CCOCC3)ccc2F)c2ccccc2)c(N2CCCCC2)c1` (stereo not shown) (as salt: HCl) [Cpd. 8, 2-[2-fluoro-5-(morpholin-4-yl)phenyl]-N-{[4-methyl-2-(piperidin-1-yl)phenyl](phenyl)methyl}acetamide] registered a melting point of 82 °C.

`Cc1ccc(C(NC(=O)Cc2ccc(N3CCS(=O)(=O)CC3)cc2)c2ccccc2)c(Br)c1` (stereo not shown) (as salt: HCl) [Cpd. 9, N-[(2-bromo-4-methylphenyl)(phenyl)methyl]-2-[4-(1,1-dioxo-1-thiomorpholin-4-yl)phenyl]acetamide]: the melting point was 142 °C.

Turning to `Cc1ccc(C(NC(=O)Cc2ccc(N3CCS(=O)(=O)CC3)c(C)c2)c2ccc(C)o2)c(C(F)(F)F)c1` (stereo not shown) (as salt: HCl) [Cpd. 10, 2-[4-(1,1-dioxo-1-thiomorpholin-4-yl)-3-methylphenyl]-N-{[4-methyl-2-(trifluoromethyl)phenyl](5-methylfuran-2-yl)methyl}acetamide], the melting point is 99 °C.

`Cc1ccc(C(NC(=O)Cc2ccc(N3CCS(=O)(=O)CC3)c(C)c2)c2ccc(C)o2)c(Br)c1` (stereo not shown) (as salt: HCl) [Cpd. 11, N-[(2-bromo-4-methylphenyl)(5-methylfuran-2-yl)methyl]-2-[4-(1,1-dioxo-1-thiomorpholin-4-yl)-3-methylphenyl]acetamide] came in with a melting point of 110 °C.

The molecule `Cc1ccc(C(NC(=O)Cc2ccc(N3CCS(=O)(=O)CC3)c(C)c2)c2ccc(C)o2)c(N2CCCCC2)c1` (stereo not shown) (as salt: HCl) [Cpd. 12, 2-[4-(1,1-dioxo-1-thiomorpholin-4-yl)-3-methylphenyl]-N-{[4-methyl-2-(piperidin-1-yl)phenyl](5-methylfuran-2-yl)methyl}acetamide] had a melting point of 97 °C.

On to `COc1ccc(C(NC(=O)Cc2ccc(N3CCS(=O)(=O)CC3)c(C)c2)c2ccc(C)o2)c(N2CCC(C)CC2)c1` (stereo not shown) (as salt: HCl) [Cpd. 13, 2-[4-(1,1-dioxo-1-thiomorpholin-4-yl)-3-methylphenyl]-N-{[4-methoxy-2-(4-methylpiperidin-1-yl)phenyl](5-methylfuran-2-yl)methyl}acetamide], for which the melting point worked out at 101 °C.

As for `COc1ccc(C(NC(=O)Cc2ccc(N3CCS(=O)(=O)CC3)c(C)c2)c2ccc(C)o2)c(N2CCC(C(F)(F)F)CC2)c1` (stereo not shown) (as salt: HCl) [Cpd. 14, 2-[4-(1,1-dioxo-1-thiomorpholin-4-yl)-3-methylphenyl]-N-({4-methoxy-2-[4-(trifluoromethyl)piperidin-1-yl]phenyl}(5-methylfuran-2-yl)methyl)acetamide], the melting point is 106 °C.

As for `COc1ccc(C(NC(=O)Cc2ccc(N3CCS(=O)(=O)CC3)c(C)c2)c2ccc(C)o2)c(N(C)C)c1` (stereo not shown) (as salt: HCl) [Cpd. 15, N-{[2-(dimethylamino)-4-methoxyphenyl](5-methylfuran-2-yl)methyl}-2-[4-(1,1-dioxo-1-thiomorpholin-4-yl)-3-methylphenyl]acetamide], the melting point was 98 °C.

`COc1ccc(C(NC(=O)Cc2ccc(N3CCS(=O)(=O)CC3)c(C)c2)c2ccc(C)o2)c(N2CC3CC3C2)c1` (stereo not shown) (as salt: HCl) [Cpd. 16, N-[(2-{3-azabicyclo[3.1.0]hexan-3-yl}-4-methoxyphenyl)(5-methylfuran-2-yl)methyl]-2-[4-(1,1-dioxo-1-thiomorpholin-4-yl)-3-methylphenyl]acetamide] yielded a melting point of 103 °C.

At human RORγt, `Cc1ccc(C(NC(=O)Cc2cnc(N3CCS(=O)(=O)CC3)nc2)c2ccc(C)o2)c(C(F)(F)F)c1` (stereo not shown) [Cpd. 33, 2-[2-(1,1-dioxo-1-thiomorpholin-4-yl)pyrimidin-5-yl]-N-{[4-methyl-2-(trifluoromethyl)phenyl](5-methylfuran-2-yl)methyl}acetamide] had an IC50 of 1000 to 10000 nM.

For the molecule `Cc1ccc(C(NC(=O)Cc2cnc(N3CCS(=O)(=O)CC3)nc2)c2ccc(Cl)cc2Cl)o1` (stereo not shown) [Cpd. 50, N-[(2,4-dichlorophenyl)(5-methylfuran-2-yl)methyl]-2-[2-(1,1-dioxo-1-thiomorpholin-4-yl)pyrimidin-5-yl]acetamide], the IC50 on human RORγt is 1000 to 10000 nM.

For `Cc1ccc(C(NC(=O)Cc2ccc(N3CCS(=O)(=O)CC3)c(O)c2)c2ccc(C)o2)c(N2CCCCC2)c1` (stereo not shown) [Cpd. 61, 2-[4-(1,1-dioxo-1-thiomorpholin-4-yl)-3-hydroxyphenyl]-N-{[4-methyl-2-(piperidin-1-yl)phenyl](5-methylfuran-2-yl)methyl}acetamide], the IC50 on human RORγt was under 100 nM.

For the molecule `COCc1ccc(CC(=O)NC(c2ccc(C)o2)c2ccc(C)cc2N2CCCCC2)cc1N1CCS(=O)(=O)CC1` (stereo not shown) [Cpd. 62, 2-[3-(1,1-dioxo-1-thiomorpholin-4-yl)-4-(methoxymethyl)phenyl]-N-{[4-methyl-2-(piperidin-1-yl)phenyl](5-methylfuran-2-yl)methyl}acetamide], at human RORγt, the IC50 was 100 to 1000 nM.

The molecule `Cc1ccc(C(NC(=O)Cc2ccc(CO)c(N3CCS(=O)(=O)CC3)c2)c2ccc(C)o2)c(N2CCCCC2)c1` (stereo not shown) [Cpd. 63, 2-[3-(1,1-dioxo-1-thiomorpholin-4-yl)-4-(hydroxymethyl)phenyl]-N-{[4-methyl-2-(piperidin-1-yl)phenyl](5-methylfuran-2-yl)methyl}acetamide] came in with an IC50 on human RORγt of 100 to 1000 nM.

On human RORγt, `Cc1ccc(C(NC(=O)C2(c3ccc(N4CCS(=O)(=O)CC4)cn3)CC2)c2ccc(C)o2)c(C)c1` (stereo not shown) [Cpd. 73, N-[(2,4-dimethylphenyl)(5-methylfuran-2-yl)methyl]-1-[5-(1,1-dioxo-1-thiomorpholin-4-yl)pyridin-2-yl]cyclopropane-1-carboxamide] returned an IC50 of 100 to 1000 nM.

Values taken from patent publication US11077115B2, “Rorgamma modulators and uses thereof” (Genfit, priority 2017, dated 2021).
